According to PubChem BioAssay AID256 (DTP/NCI, 2004):
Several values for one entry are separate records, joined by “and”; a condition that tells them apart may be missing. Equal entries are not always repeated. Toxic doses and inconclusive results are not listed. The calls were made as follows: active = survival T/C of 150% or more; inactive = T/C below 125% in these data.

Tested on: CD2F1 mice, L1210 leukemia ip, survival T/C
Experiment: NCI In Vivo Anticancer Drug Screen. Data for tumor model L1210 Leukemia (intraperitoneal) in CD2F1 (CDF1) mice
Conditions: higher = longer survival
Summary of the method: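 Antitumor effect is scored in animals hosting a serially transplanted tumor. Values compare compound-dosed animals against vehicle-only controls as a simple quotient.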

[1] = endpoint: mean survival time, dose: 50.0 mg/kg/injection, schedule: Q01DX009 (ip), vehicle: saline with Tween-80
[2] = endpoint: mean survival time, dose: 100.0 mg/kg/injection, schedule: Q01DX009 (ip), vehicle: saline with Tween-80
[3] = endpoint: mean survival time, dose: 200.0 mg/kg/injection, schedule: Q01DX009 (ip), vehicle: saline with Tween-80
[4] = endpoint: mean survival time, dose: 100.0 mg/kg/injection, schedule: Q01DX001 (ip), vehicle: saline with Tween-80
[5] = endpoint: mean survival time, dose: 200.0 mg/kg/injection, schedule: Q01DX001 (ip), vehicle: saline with Tween-80
[6] = endpoint: mean survival time, dose: 100.0 mg/kg/injection, schedule: Q04DX003 (ip), vehicle: saline with Tween-80
[7] = endpoint: mean survival time, dose: 200.0 mg/kg/injection, schedule: Q04DX003 (ip), vehicle: saline with Tween-80
[8] = endpoint: mean survival time, dose: 400.0 mg/kg/injection, schedule: Q04DX003 (ip), vehicle: saline with Tween-80
[9] = endpoint: mean survival time, dose: 100.0 mg/kg/injection, schedule: Q04DX003 (ip), vehicle: saline
[10] = endpoint: mean survival time, dose: 200.0 mg/kg/injection, schedule: Q04DX003 (ip), vehicle: saline

Measured: T/C

CCCC/C=C\C(=O)OC
inactive: [1] 101 % of control | [2] 104 % of control | [3] 101 % of control

Nc1ccc2nc3ccc(N)cc3[n+](-c3ccccc3)c2c1
inactive: endpoint: mean survival time, dose: 6.0 mg/kg/injection, schedule: Q01DX009 (ip), vehicle: saline 105 % of control | endpoint: mean survival time, dose: 8.0 mg/kg/injection, schedule: Q01DX009 (ip), vehicle: saline 105 % of control | endpoint: mean survival time, dose: 12.0 mg/kg/injection, schedule: Q01DX009 (ip), vehicle: saline 110 % of control

CCN(CCO)c1ccc(N)cc1C
inactive: endpoint: mean survival time, dose: 1.56 mg/kg/injection, schedule: Q01DX009 (ip), vehicle: saline 100 % of control | endpoint: mean survival time, dose: 1.56 mg/kg/injection, schedule: Q04DX003 (ip), vehicle: saline 101 % of control | endpoint: mean survival time, dose: 3.13 mg/kg/injection, schedule: Q01DX009 (ip), vehicle: saline 100 % of control | endpoint: mean survival time, dose: 3.13 mg/kg/injection, schedule: Q04DX003 (ip), vehicle: saline 104 % of control | endpoint: mean survival time, dose: 6.25 mg/kg/injection, schedule: Q01DX009 (ip), vehicle: saline 101 % of control | endpoint: mean survival time, dose: 6.25 mg/kg/injection, schedule: Q04DX003 (ip), vehicle: saline 97 % of control

COc1ccc(CC(=O)NCCc2ccc3c(c2)OCO3)cc1
inactive: [4] 91 % of control | [5] 87 % of control

CCCCNP1(NCCCC)=NP(NCCCC)(NCCCC)=NP(NCCCC)(NCCCC)=NP(NCCCC)(NCCCC)=N1
inactive: endpoint: median survival time, dose: 12.5 mg/kg/injection, schedule: Q01DX009 (ip), vehicle: saline with Tween-80 107 % of control | endpoint: median survival time, dose: 25.0 mg/kg/injection, schedule: Q01DX009 (ip), vehicle: saline with Tween-80 107 % of control | endpoint: median survival time, dose: 50.0 mg/kg/injection, schedule: Q01DX009 (ip), vehicle: saline with Tween-80 97 % of control

CCCCCC(=O)CCCC
inactive: [1] 109 % of control | [2] 102 % of control | [3] 105 % of control

O=C(O)CCN1CCCc2ccccc21
inactive: endpoint: mean survival time, dose: 100.0 mg/kg/injection, schedule: Q01DX009 (ip), vehicle: other 109 % of control | endpoint: mean survival time, dose: 100.0 mg/kg/injection, schedule: Q04DX003 (ip), vehicle: other 95 % of control | endpoint: mean survival time, dose: 200.0 mg/kg/injection, schedule: Q01DX009 (ip), vehicle: other 103 % of control | endpoint: mean survival time, dose: 200.0 mg/kg/injection, schedule: Q04DX003 (ip), vehicle: other 107 % of control | endpoint: mean survival time, dose: 400.0 mg/kg/injection, schedule: Q04DX003 (ip), vehicle: other 96 % of control

CCCCc1ccc(N/C(N)=N/c2nc(C)cc(=O)[nH]2)cc1
inactive: [6] 98 % of control | [7] 98 % of control | [8] 92 % of control

OC(c1ccccc1)(c1ccc2ccccc2n1)c1cccs1 (stereo unspecified)
inactive: [9] 102 % of control | [10] 90 % of control | endpoint: mean survival time, dose: 400.0 mg/kg/injection, schedule: Q04DX003 (ip), vehicle: saline 90 % of control

COc1nc(NC2OC(CO)C(O)C(O)C2O)cc(=O)n1C (stereo unspecified)
inactive: endpoint: median survival time, dose: 12.5 mg/kg/injection, schedule: Q01DX005 (ip), vehicle: saline 98 % of control | endpoint: median survival time, dose: 25.0 mg/kg/injection, schedule: Q01DX005 (ip), vehicle: saline 98 % of control | endpoint: median survival time, dose: 50.0 mg/kg/injection, schedule: Q01DX005 (ip), vehicle: saline 100 % of control | endpoint: median survival time, dose: 100.0 mg/kg/injection, schedule: Q01DX005 (ip), vehicle: saline 102 % of control | endpoint: median survival time, dose: 200.0 mg/kg/injection, schedule: Q01DX005 (ip), vehicle: saline 102 % of control

O=C(O)C(O)(Cl)c1cccs1 (stereo unspecified)
inactive: [6] 98 % of control | [7] 95 % of control | [8] 95 % of control

COc1ccc(OC)c(NC(=S)NC(=O)COc2ccccc2)c1
inactive: [4] 87 % of control | [2] 94 % of control and 97 % of control | endpoint: mean survival time, dose: 100.0 mg/kg/injection, schedule: Q04DX002 (ip), vehicle: saline with Tween-80 98 % of control | [5] 87 % of control | [3] 88 % of control and 93 % of control | endpoint: mean survival time, dose: 200.0 mg/kg/injection, schedule: Q04DX002 (ip), vehicle: saline with Tween-80 102 % of control | endpoint: mean survival time, dose: 400.0 mg/kg/injection, schedule: Q01DX001 (ip), vehicle: saline with Tween-80 89 % of control | endpoint: mean survival time, dose: 400.0 mg/kg/injection, schedule: Q01DX009 (ip), vehicle: saline with Tween-80 102 % of control and 104 % of control | endpoint: mean survival time, dose: 400.0 mg/kg/injection, schedule: Q04DX002 (ip), vehicle: saline with Tween-80 109 % of control

CN(C)CCCNc1c2ccccc2nc2cccc([N+](=O)[O-])c12
inactive: endpoint: mean survival time, dose: 0.2 mg/kg/injection, schedule: Q04DX002 (ip), vehicle: saline + alcohol 103 % of control | endpoint: mean survival time, dose: 0.4 mg/kg/injection, schedule: Q04DX002 (ip), vehicle: saline + alcohol 103 % of control | endpoint: mean survival time, dose: 0.8 mg/kg/injection, schedule: Q04DX002 (ip), vehicle: saline + alcohol 100 % of control

Cc1ccc([N+](=O)[O-])c(P(=O)(O)O)c1
inactive: endpoint: mean survival time, dose: 25.0 mg/kg/injection, schedule: Q01DX009 (ip), vehicle: saline with Tween-80 91 % of control | [1] 88 % of control | [2] 87 % of control

CCOCCc1ccncc1
inactive: [9] 101 % of control | [10] 104 % of control
